According to patent US9493444B2 (Merck Patent GmbH, priority 2012, dated 2016):

The molecules below were run on Wnt pathway (TCF-dependent transcription in HEK293 luciferase reporter cell line with ER-DSH construct) (assay: Cellular assay for Wnt pathway activity (luciferase reporter)). Conditions: Homo sapiens; Wnt pathway inhibition, HEK293 luciferase reporter cells (ER-DSH, TCF promoter), 24 hours incubation, estrogen-induced.
Assay type: cell-based
Description: 1. Cellular Assay for Wnt Pathway Activity
Compounds were tested for their Wnt pathway inhibitory activities using a luciferase reporter cell based assay. A HEK293 luciferase reporter cell line was used which contained an Estrogen Receptor-Dishevelled (ER-DSH) construct and a T-Cell Factor (TCF) dependent gene promoter luciferase construct.
Compounds, in concentrations from 30 μM down to 1 nM, were incubated for 24 hours on the cells, which were induced for TCF-dependent transcription by the addition of estrogen (10). Luciferase activities were determined using the ONE GLO Luciferase Assay System (Promega) and the ENVISION microplate reader (Perkin Elmer). For analysis, the obtained data were normalized against the untreated vehicle control and fitted for determination of the IC50 values using the Assay Explorer software (Accelrys).
`COc1ccc(Oc2cncc(N(C)CCN(C)C(C)=O)n2)c(F)c1` [Compound 109, N-(2-{[6-(2-Fluoro-4-methoxy-phenoxy)-pyrazin-2-yl]-methyl-amino}-ethyl)-N-methyl-acetamide] was tested, and the IC50 was 200 to 1000 nM.
Molecule `COc1ccc(Oc2cncc(N(C)CCN(C)C(=O)Cc3ccc(F)cc3)n2)cc1` [Compound 63, 2-(4-Fluoro-phenyl)-N-(2-{[6-(4-methoxy-phenoxy)-pyrazin-2-yl]-methyl-amino}-ethyl)-N-methyl-acetamide] has an IC50 of 1000 to 10000 nM.
With `CC(=O)N(C)CCN(C)c1cncc(Oc2ccc(-n3ccnc3)cc2)n1` [Compound 118] the IC50 was less than 200 nM.
In the case of `CC(=O)N(C)CCN(C)c1cncc(Oc2ccc(-c3cnc(N)cn3)cc2)n1` [Compound 185, N-[2-({6-[4-(5-Amino-pyrazin-2-yl)-phenoxy]-pyrazin-2-yl}-methyl-amino)-ethyl]-N-methyl-acetamide], the IC50 is reported as less than 200 nM.
`CC(=O)N(C)CCN(C)c1cncc(Oc2ccc(-c3ncc(O)cn3)cc2)n1` [Compound 165, N-[2-({6-[4-(5-Hydroxy-pyrimidin-2-yl)-phenoxy]-pyrazin-2-yl}-methyl-amino)-ethyl]-N-methyl-acetamide] was tested, and the IC50 was 1000 to 10000 nM.
In the case of `Cc1ccc(-c2ccc(Oc3cncc(N(C)CCN4CCCCC4=O)n3)cc2)nc1` [Compound 193, 1-[2-(Methyl-{6-[4-(5-methyl-pyridin-2-yl)-phenoxy]-pyrazin-2-yl}-amino)-ethyl]-piperidin-2-one], the IC50 is reported as less than 200 nM.
For `CC(=O)N(C)CCN(C)c1cncc(Oc2ccc(-c3cc(C(N)=O)ccn3)cc2)n1` [Compound 192, 2-[4-(6-{[2-(Acetyl-methyl-amino)-ethyl]-methyl-amino}-pyrazin-2-yloxy)-phenyl]-isonico-tinamide], the IC50 was 200 to 1000 nM.
With `CCN(CCN(C)c1cncc(Oc2cccc(F)c2)n1)C(C)=O` [Compound 82, N-Ethyl-N-(2-{[6-(3-fluoro-phenoxy)-pyrazin-2-yl]-methyl-amino}-ethyl)-acetamide] the IC50 was 200 to 1000 nM.
`COc1ccc(Oc2cncc(N(C)CCN(C)C(C)=O)n2)cc1OC` [Compound 140, N-(2-{[6-(3,4-Dimethoxy-phenoxy)-pyrazin-2-yl]-methyl-amino}-ethyl)-N-methyl-acetamide] gave an IC50 of 1000 to 10000 nM.
For `CC(=O)N(C)CCN(C)c1cncc(O[C@H]2C[C@H]3CC[C@@H]2C3)n1` [Compound 208, N-(2-{[6-((1R,2S,4S)-Bicyclo[2.2.1]hept-2-yloxy)-pyrazin-2-yl]-methyl-amino}-ethyl)-N-methyl-acetamide], the IC50 was 1000 to 10000 nM.
Molecule `CC(=O)N(C)CCN(C)c1cncc(Oc2ccc(-c3ccncc3)cc2)n1` [Compound 203, N-Methyl-N-(2-{methyl-[6-(4-pyridin-4-yl-phenoxy)-pyrazin-2-yl]-amino}-ethyl)-acetamide] has an IC50 of less than 200 nM.
Molecule `CC(=O)N(C)CCN(C)c1cncc(Oc2ccc(-c3cncc(C)c3)cc2)n1` [Compound 212, N-Methyl-N-[2-(methyl-{6-[4-(5-methyl-pyridin-3-yl)-phenoxy]-pyrazin-2-yl}-amino)-ethyl]-acetamide] has an IC50 of 200 to 1000 nM.
`CC(=O)Nc1cccc(-c2ccc(Oc3cncc(NCCN(C)C(C)=O)n3)c(F)c2)n1` [Compound 259, N-(2-{6-[4-(6-Acetylamino-pyridin-2-yl)-2-fluoro-phenoxy]-pyrazin-2-ylamino}-ethyl)-N-methyl-acetamide] showed an IC50 of 1000 to 10000 nM.
Work on `CC(=O)N(C)CCN(C)c1cncc(Oc2ccc(-c3cc(C)cc[n+]3[O-])cc2)n1` [Compound 174, N-Methyl-N-[2-(methyl-{6-[4-(4-methyl-1-oxy-pyridin-2-yl)-phenoxy]-pyrazin-2-yl}-amino)-ethyl]-acetamide] yielded an IC50 of 200 to 1000 nM.
`CCN(CCNc1cncc(Oc2ccc(OC)cc2)n1)C(C)=O` [Compound 71, N-Ethyl-N-{2-[6-(4-methoxy-phenoxy)-pyrazin-2-ylamino]-ethyl}-acetamide] was tested, and the IC50 was 200 to 1000 nM.
In the case of `CC(=O)N(C)CCN(C)c1cncc(Oc2ccc(N3CCNCC3)cc2)n1` [Compound 149, N-Methyl-N-(2-{methyl-[6-(4-piperazin-1-yl-phenoxy)-pyrazin-2-yl]-amino}-ethyl)-acetamide], the IC50 is reported as 1000 to 10000 nM.
Molecule `CC(=O)N(C)CCN(C)c1cncc(Oc2cccc(C)c2)n1` [Compound 44, N-Methyl-N-{2-[methyl-(6-m-tolyloxy-pyrazin-2-yl)-amino]-ethyl}-acetamide] has an IC50 of 1000 to 10000 nM.
`COc1ccc(Oc2cncc(N(C)CCCN(C)C(=O)C(F)(F)F)n2)cc1` [Compound 81, 2,2,2-Trifluoro-N-(3-{[6-(4-methoxy-phenoxy)-pyrazin-2-yl]-methyl-amino}-propyl)-N-methyl-acetamide] showed an IC50 of 1000 to 10000 nM.
For `CCOC(=O)C(C)c1ccc(Oc2cncc(N(C)CCN(C)C(C)=O)n2)cc1` (centres unmarked) [Compound 138, 2-[4-(6-{[2-(Acetyl-methyl-amino)-ethyl]-methyl-amino}-pyrazin-2-yloxy)-phenyl]-propionic acid ethyl ester], the IC50 was 200 to 1000 nM.
`CN(CCN(C)S(C)(=O)=O)c1cncc(Oc2ccc(F)cc2)n1` [Compound 281, N-(2-{[6-(4-Fluoro-phenoxy)-pyrazin-2-yl]-methyl-amino}-ethyl)-N-methyl-methane-sulfonamide] showed an IC50 of 1000 to 10000 nM.
Molecule `CC(=O)N(C)CCCc1cncc(Oc2ccc(-c3cnc(N)cn3)cc2F)n1` [Compound 269, N-(3-{6-[4-(5-Amino-pyrazin-2-yl)-2-fluoro-phenoxy]-pyrazin-2-yl}-propyl)-N-methyl-acetamide] has an IC50 of 200 to 1000 nM.
In the case of `CC(=O)N(C)CCN(C)c1cncc(Oc2ccc(Cn3nc(-c4cc(F)cc(F)c4)ccc3=O)cc2)n1` [Compound 127, N-{2-[(6-{4-[3-(3,5-Difluoro-phenyl)-6-oxo-6H-pyridazin-1-ylmethyl]-phenoxy}-pyrazin-2-yl)-methyl-amino]-ethyl}-N-methyl-acetamide], the IC50 is reported as 1000 to 10000 nM.
Work on `COc1ccc(Oc2cncc(N(C)CCN(C)C(C)=O)n2)cc1` [Compound 30, N-(2-{[6-(4-Methoxy-phenoxy)-pyrazin-2-yl]-methyl-amino}-ethyl)-N-methyl-acetamide] yielded an IC50 of 200 to 1000 nM.
`C=CC(=O)N(C)CCN(C)c1cncc(Oc2ccc(F)cc2)n1` [Compound 290, N-(2-{[6-(4-Fluoro-phenoxy)-pyrazin-2-yl]-methyl-amino}-ethyl)-N-methyl-acrylamide] showed an IC50 of 1000 to 10000 nM.
`CC(=O)N(C)CCNc1cncc(Oc2ccc(-c3ccc(N4CCOCC4)nc3)cc2)n1` [Compound 233, N-Methyl-N-(2-{6-[4-(6-morpholin-4-yl-pyridin-3-yl)-phenoxy]-pyrazin-2-ylamino}-ethyl)-acetamide] showed an IC50 of 1000 to 10000 nM.
`CC(=O)N(C)CCCc1cnc(N)c(Oc2ccc(F)cc2)c1` [Compound 306, N-{3-[6-Amino-5-(4-fluoro-phenoxy)-pyridin-3-yl]-propyl}-N-methyl-acetamide] showed an IC50 of 1000 to 10000 nM.
Work on `CC(=O)N(C)CCN(C)c1cncc(Oc2ccc(-c3cncnc3)cc2)n1` [Compound 209, N-Methyl-N-(2-{methyl-[6-(4-pyrimidin-5-yl-phenoxy)-pyrazin-2-yl]-amino}-ethyl)-acetamide] yielded an IC50 of less than 200 nM.
In the case of `CN(CCN(C)c1cncc(Oc2ccc(F)cc2)n1)C(=O)CN` [Compound 284, 2-Amino-N-(2-{[6-(4-fluoro-phenoxy)-pyrazin-2-yl]-methyl-amino}-ethyl)-N-methyl-acetamide], the IC50 is reported as 1000 to 10000 nM.
Work on `CC(=O)N(C)CCNc1cncc(Oc2ccc(-c3cnc(N)cn3)cc2)n1` [Compound 241, N-(2-{6-[4-(5-Amino-pyrazin-2-yl)-phenoxy]-pyrazin-2-ylamino}-ethyl)-N-methyl-acetamide] yielded an IC50 of 1000 to 10000 nM.
